From PubChem BioAssay (NCI)
Several values for one entry are separate records, joined by “and”; a condition that tells them apart may be missing. Identical values can stand only once.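 Cultured in 96-well plates, cells were exposed to test compound for 48 hours across five concentrations. GI50: concentration for 50% inhibition of growth. TGI marks complete inhibition of growth.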

How the values were obtained:
Assay in all cases: DTP human tumour cell line panel, 48 h
[1] = test system: CCRF-CEM leukemia
[2] = test system: OVCAR-8 ovarian
[3] = test system: PC-3 prostate
[4] = test system: MCF7 breast
[5] = test system: BT-549 breast
[6] = test system: NCI-H226 lung
[7] = test system: SF-295 CNS
[8] = test system: UACC-62 melanoma
[9] = test system: NCI-H460 lung
[10] = test system: U251 CNS
[11] = test system: HL-60(TB) leukemia
[12] = test system: A498 renal
[13] = test system: SR leukemia
[14] = test system: RXF 393 renal
[15] = test system: EKVX NSCLC
[16] = test system: HCT-116 colon
[17] = test system: CAKI-1 renal
[18] = test system: OVCAR-3 ovarian
[19] = test system: SN12C renal
[20] = test system: MALME-3M melanoma
[21] = test system: MDA-N
[22] = test system: KM12 colon
[23] = test system: SK-MEL-28 melanoma
[24] = test system: SF-539 CNS
[25] = test system: HOP-62 NSCLC
[26] = test system: NCI-H23 lung
[27] = test system: SK-MEL-5 melanoma
[28] = test system: IGROV1 ovarian
[29] = test system: RPMI-8226 leukemia
[30] = test system: LOX IMVI melanoma
[31] = test system: MDA-MB-231 breast
[32] = test system: M14 melanoma
[33] = test system: HS 578T breast
[34] = test system: UO-31 renal
[35] = test system: MDA-MB-435
[36] = test system: NCI/ADR-RES ovarian
[37] = test system: UACC-257 melanoma
[38] = test system: 786-0 renal
[39] = test system: SF-268 CNS
[40] = test system: SNB-75 CNS
[41] = test system: COLO 205 colon
[42] = test system: HT29 colon
[43] = test system: SK-OV-3 ovarian
[44] = test system: SW-620 colon
[45] = test system: K-562 leukemia
[46] = test system: SNB-19 CNS
[47] = test system: DU-145 prostate
[48] = test system: ACHN renal
[49] = test system: OVCAR-5 ovarian
[50] = test system: HCT-15 colon
[51] = test system: MOLT-4 leukemia
[52] = test system: TK-10 renal
[53] = test system: SK-MEL-2 melanoma
[54] = test system: HOP-92 NSCLC
[55] = test system: A549 NSCLC
[56] = test system: HCC-2998 colon
[57] = test system: NCI-H522 lung
[58] = test system: OVCAR-4 ovarian
[59] = test system: T-47D breast

CCCCCCCCCCCCCCCCC(C(=O)O)C(O)(CC(=O)O)C(=O)O (centres undefined)
TGI [1]: 79.2 µM
TGI [2]: > 100 µM
TGI [3]: 38.8 µM
TGI [4]: > 100 µM
TGI [5]: 51.3 µM
TGI [6]: 47.3 µM
TGI [7]: 35.5 µM
TGI [8]: 48.9 µM
TGI [9]: 46.6 µM
TGI [10]: 33.1 µM
TGI [11]: 34.4 µM
TGI [12]: 47.6 µM
TGI [13]: 81 µM
TGI [14]: 53.4 µM
TGI [15]: 39.3 µM
TGI [16]: 36.3 µM
TGI [17]: 46.3 µM
TGI [18]: 35.8 µM
TGI [19]: 53.6 µM
TGI [20]: > 100 µM
TGI [21]: > 100 µM
TGI [22]: 37.3 µM
TGI [23]: 59.1 µM
TGI [24]: 89.3 µM
TGI [25]: 34.1 µM
TGI [26]: 64.6 µM
TGI [27]: > 100 µM
TGI [28]: 46.4 µM
TGI [29]: 74.8 µM
TGI [30]: 66.3 µM
TGI [31]: 75.8 µM
TGI [32]: 47.7 µM
TGI [33]: 58.6 µM
TGI [34]: 45.4 µM
TGI [35]: > 100 µM
TGI [36]: > 100 µM
TGI [37]: > 100 µM
TGI [38]: > 100 µM
TGI [39]: 70.3 µM
TGI [40]: 43.8 µM
TGI [41]: 35 µM
TGI [42]: 45.4 µM
TGI [43]: 36.1 µM
TGI [44]: 46.6 µM
TGI [45]: > 100 µM
TGI [46]: 79.3 µM
TGI [47]: > 100 µM
TGI [48]: > 100 µM
TGI [49]: 35.1 µM
TGI [50]: > 100 µM
TGI [51]: 61.6 µM
TGI [52]: > 100 µM
TGI [53]: 41.4 µM

COC(=O)/C=C/c1cc(OC)c2c(c1)C(C(=O)OC)C(c1ccc(OC)c(OC)c1)O2 (centres undefined)
TGI [1]: > 100 µM
TGI [2]: > 100 µM
TGI [3]: > 100 µM
TGI [4]: > 100 µM
GI50 [5]: 29 µM and 6.01 µM
TGI [5]: 99.6 µM and > 100 µM
TGI [6]: > 100 µM and 25.6 µM
TGI [7]: > 100 µM
TGI [8]: > 100 µM
TGI [54]: > 100 µM
GI50 [9]: 48.6 µM and 15.7 µM
TGI [9]: > 100 µM
TGI [55]: > 100 µM
TGI [10]: > 100 µM
TGI [11]: > 100 µM
GI50 [12]: 64.1 µM
TGI [12]: > 100 µM
TGI [13]: > 100 µM
TGI [14]: > 100 µM
GI50 [15]: 39.3 µM and 5.12 µM
TGI [15]: > 100 µM
TGI [16]: > 100 µM
TGI [17]: > 100 µM
TGI [18]: > 100 µM
TGI [19]: > 100 µM
TGI [20]: > 100 µM
GI50 [21]: 30.6 µM
TGI [21]: > 100 µM
TGI [22]: > 100 µM
TGI [23]: > 100 µM
GI50 [56]: > 100 µM and 38.6 µM
TGI [56]: > 100 µM
TGI [25]: > 100 µM
GI50 [26]: > 100 µM
TGI [26]: > 100 µM
TGI [27]: > 100 µM
TGI [28]: > 100 µM
TGI [57]: > 100 µM
TGI [29]: > 100 µM
GI50 [58]: 45.9 µM and 8.71 µM
TGI [58]: > 100 µM
TGI [30]: > 100 µM
TGI [31]: > 100 µM
TGI [32]: > 100 µM
GI50 [34]: 32.1 µM and 8.62 µM
TGI [34]: > 100 µM
GI50 [35]: 19.8 µM
TGI [35]: 49 µM
GI50 [36]: 43.3 µM and 4.9 µM
TGI [36]: > 100 µM
TGI [37]: > 100 µM
TGI [38]: > 100 µM
GI50 [39]: 70.7 µM and 10.7 µM
TGI [39]: > 100 µM
TGI [40]: 5.61 µM
TGI [41]: > 100 µM and 17.6 µM
TGI [42]: > 100 µM
TGI [43]: > 100 µM
TGI [44]: > 100 µM
TGI [45]: > 100 µM
GI50 [59]: 39.9 µM and 4.16 µM
TGI [59]: > 100 µM
TGI [46]: > 100 µM
GI50 [47]: > 100 µM
TGI [47]: > 100 µM
TGI [48]: > 100 µM
GI50 [49]: > 100 µM
TGI [49]: > 100 µM
TGI [50]: > 100 µM
TGI [51]: > 100 µM
TGI [52]: > 100 µM
TGI [53]: > 100 µM

CC1CCCc2c(-c3ccc(Cl)cc3)nc(N)c(C#N)c21 (centres undefined)
TGI [1]: > 100 µM
TGI [2]: 91.6 µM
TGI [3]: 82 µM
TGI [4]: > 100 µM
TGI [5]: 53.4 µM
TGI [6]: 66.2 µM
TGI [8]: 40.2 µM
TGI [9]: 81.4 µM
TGI [10]: > 100 µM
TGI [11]: > 100 µM
TGI [12]: 89 µM
TGI [13]: 40.5 µM
TGI [14]: 93.2 µM
TGI [15]: 65.8 µM
TGI [16]: > 100 µM
TGI [17]: > 100 µM
TGI [18]: > 100 µM
TGI [19]: > 100 µM
TGI [20]: > 100 µM
TGI [21]: 53.4 µM
TGI [22]: 56.7 µM
TGI [23]: > 100 µM
TGI [24]: 92.3 µM
TGI [25]: 63 µM
TGI [26]: 99.4 µM
TGI [27]: 38.5 µM
TGI [28]: 66.1 µM
TGI [29]: 37.9 µM
TGI [30]: 68 µM
TGI [31]: > 100 µM
TGI [32]: 86 µM
TGI [33]: > 100 µM
TGI [34]: 61.7 µM
TGI [35]: > 100 µM
TGI [36]: 71.3 µM
TGI [37]: 61.5 µM
TGI [38]: > 100 µM
TGI [39]: > 100 µM
TGI [40]: 50.6 µM
TGI [41]: 48.3 µM
TGI [42]: > 100 µM
TGI [43]: 83.6 µM
TGI [44]: > 100 µM
TGI [45]: 93.5 µM
TGI [59]: 35.6 µM
TGI [46]: > 100 µM
TGI [47]: > 100 µM
TGI [48]: > 100 µM
TGI [49]: > 100 µM
TGI [50]: > 100 µM
TGI [51]: 69.8 µM
TGI [52]: > 100 µM
TGI [53]: 67.6 µM

C1CSCC2(COC2)CS1
TGI [1]: > 100 µM
TGI [2]: > 100 µM
TGI [3]: > 100 µM
TGI [4]: > 100 µM
TGI [6]: > 100 µM
TGI [7]: > 100 µM
TGI [54]: > 100 µM
TGI [9]: > 100 µM
TGI [55]: > 100 µM
TGI [10]: > 100 µM
TGI [12]: > 100 µM
TGI [13]: > 100 µM
TGI [14]: > 100 µM
TGI [16]: > 100 µM
TGI [19]: > 100 µM
TGI [21]: > 100 µM
TGI [22]: > 100 µM
TGI [23]: > 100 µM
TGI [56]: > 100 µM
TGI [26]: > 100 µM
TGI [27]: > 100 µM
TGI [57]: > 100 µM
TGI [58]: > 100 µM
TGI [30]: > 100 µM
TGI [33]: > 100 µM
TGI [34]: > 100 µM
TGI [35]: > 100 µM
TGI [36]: > 100 µM
TGI [37]: > 100 µM
TGI [39]: > 100 µM
TGI [40]: > 100 µM
TGI [41]: > 100 µM
TGI [42]: > 100 µM
TGI [43]: > 100 µM
TGI [44]: > 100 µM
TGI [45]: > 100 µM
TGI [46]: > 100 µM
TGI [47]: > 100 µM
TGI [48]: > 100 µM
TGI [51]: > 100 µM
TGI [52]: > 100 µM
